# pIC50: −log10 of the molar value. Values joined by “and” are separate entries in the source; they are usually repeats but may differ in a detail not shown here. Equal values may be shown once. Read-outs that look alike come from different tables or passages of the source.
# Columns and labels:
# HIV-1 RoJo = assay: PBMC assay, HIV-1 RoJo replication (RT activity); type: cell-based; details: for IC50 (50% inhibition of virus replication): 6 days; for anti-viral activity against HIV-1 RoJo virus: in vitro
# Description: Human peripheral blood mononuclear cells from a minimum of two donors, that have been blasted with PHA and IL-2, were counted, viability determined by Trypan Blue dye exclusion and mixed in equal ratios. Pooled donors were used to minimize the variability observed between individual donors which results from quantitative and qualitative differences in HIV infection and overall response to the PHA and IL-2 of primary lymphocyte populations. […] Fifty microliters of cells were then distributed to the inner 60 wells of a 96 well round bottom microtiter culture plate in a standard format developed by the Infectious Disease Research department of Southern Research Institute. Each plate contains cell control wells (cells only), virus control wells (cells plus virus), and experimental wells (drug plus cells plus virus). Serially diluted compounds were added to the microtiter plate followed by the appropriate pretitered dilution of HIV-1 RoJo. All samples were assayed in triplicate with a replicate plate without virus for the determination of compound toxicity. The final volume per well was 200 μL. The assay was incubated for 6 days in a humidified atmosphere at 37° C., 5% CO2, after which supernatants were collected, for analysis of RT activity and sister plates analyzed for cell viability by MTS dye reduction. Wells were also examined microscopically and any abnormalities noted.
# Reverse transcriptase (RT) activity was measured in cell-free supernatants. Tritiated thymidine triphosphate (NEN) (TTP) was resuspended in distilled H2O at 5 Ci/mL. Poly rA and oligo dT were prepared as a stock solution which was kept at −20° C. The RT reaction buffer was prepared fresh on a daily basis and consists of 125 μL 1.0 M EGTA, 125 μL dH2O, 110 μL 10% SDS, 50 μL 1.0 M Tris (pH 7.4), 50 μL 1.0 M DTT, and 40 μL 1.0 M MgCl2. These three solutions were mixed together in a ratio of two parts TTP, one part poly rA:oligo dT, and one part reaction buffer. Ten microliters of this reaction mixture were placed in a round bottom microtiter plate and 15 μL of virus containing supernatant was added and mixed. The plate was incubated at 37° C. in a water bath with a solid support to prevent submersion of the plate and incubated for 60 minutes. Following reaction, the reaction volume was spotted onto pieces of DE81 paper, washed 5 times for 5 minutes each in a 5% sodium phosphate buffer, two times for one minute each in distilled water, two times for one minute each in 70% ethanol, and then dried.
# The IC50 and TC50 values were calculated by linear regression. The TI represents the ratio of the TC50/IC50, and is used to determine relative potency between compounds.
# monocyte/macrophages = assay: MTS staining for cell viability, monocyte/macrophages; type: cell-based, human
# Description: Peripheral blood monocytes were isolated from normal HIV-1 negative donors by plastic adherence following ficoll hypaque purification of the buffy coat, as described above for PBMCs. In many cases the same donor used to produce the PBMC populations was also used to produce monocyte/macrophages, however unlike PBMC population monocyte/macrophage, donors were never pooled. […] The monocytes were released from the plastic by vigorous pipetting with Ca^2+ and Mg^2+ free PBS. […] The monocytes (1×10^5 per 0.2 cm well) were then cultured for six days, allowing maturation of the cells to a macrophagelike phenotype. […] Cultures were washed a final time by media removal 24 hours post infection, fresh compound added and the cultures continued for an additional six days. The assays were preformed using a standardized microtiter plate format, which uses only the inner 60 wells of a 96 well plate for assay purposes. The outer rows contain media and acts an a evaporation barrier. Each plate contains cell control wells (cells only), virus control wells (cells plus virus), and experimental wells (drug plus cells plus virus). HIV p24 antigen content to assess virus replication was measured at assay termination by a commercially available p24 ELISA assay (Coulter) on cell-free supernatants, and compound cytotoxicity by MTS dye reduction. […]
# Subtype A RW/92/016 = assay: PBMC assay, HIV-1 subtype A; type: cell-based; details: Subtype A RW/92/016, PBMC
# [1] = tested on: Subtype B 302056 (91US056); assay: PBMC assay, HIV-1 subtype B; type: cell-based
# Subtype C BR/92/025 = assay: PBMC assay, HIV-1 subtype C; type: cell-based; details: Subtype C BR/92/025, PBMC
# Subtype D UG/92/046 = assay: PBMC assay, HIV-1 subtype D; type: cell-based; details: Subtype D UG/92/046, PBMC
# Subtype F BR/93/020 = assay: PBMC assay, HIV-1 subtype F; type: cell-based; details: Subtype F BR/93/020, PBMC
# Subtype G Jv1083 = assay: PBMC assay, HIV-1 subtype G; type: cell-based
# Subtype O BCOF-01 = assay: PBMC assay, HIV-1 subtype O; type: cell-based; details: Subtype O BCOF-01, PBMC
# WeJo = assay: PBMC assay, HIV-1 WeJo; type: cell-based
# SLKA = assay: PBMC assay, HIV-1 SLKA; type: cell-based
# TEKI = assay: PBMC assay, HIV-1 TEKI; type: cell-based
# HIV-1 ADA = assay: Monocyte/macrophage assay, HIV-1 ADA (p24 ELISA); type: cell-based; details: monocytes
# Description: (§1) Peripheral blood monocytes were isolated from normal HIV-1 negative donors by plastic adherence following ficoll hypaque purification of the buffy coat, as described above for PBMCs. In many cases the same donor used to produce the PBMC populations was also used to produce monocyte/macrophages, however unlike PBMC population monocyte/macrophage, donors were never pooled. Following a two hour adherence in RPMI 1640 without phenol red supplemented with 10% human pooled AB serum (heat inactivated), 2 mM L-glutamine, 100 U/mL penicillin, 100 μg/mL streptomycin, 10 μg/mL gentamycin, cultures were washed to remove non-adherent cells. […] Adherent cells were assessed for purity by nonspecific esterase staining (a-napthyl butyrate specific esterase, Sigma Chemical Co.), and/or viability by Trypan Blue dye exclusion, counted and resuspended in RPMI 1640 supplemented with 10% Fetal Bovine Serum (heat inactivated), 2 mM L-glutamine, 100 U/mL penicillin, 100 μg/mL streptomycin, 10 μg/mL gentamycin at 1×10^6 monocytes per ml. […] HIV p24 antigen content to assess virus replication was measured at assay termination by a commercially available p24 ELISA assay (Coulter) on cell-free supernatants, and compound cytotoxicity by MTS dye reduction. […]
# (§2) ELISA kits were purchased from Coulter Electronics. […] Control curves were generated in each assay to accurately quantitate the amount of p24 antigen in each sample. […]
# HIV-1 Ba-L = assay: Monocyte/macrophage assay, HIV-1 Ba-L (p24 ELISA); type: cell-based; details: monocytes
# Description: as §1, §2
# SIVmac251 = assay: PBMC assay, SIVmac251; type: cell-based, SIV
# HIV-2 (CDC 310319) = assay: PBMC assay, HIV-2; type: cell-based
# MDR769 = details: MDR769, PBMC
# Protocol: (§3) Human immunodeficiency virus type 1 (HIV-1) strains Ba-L, ADA, SIVmac251, HIV-2 (CDC3 10319) and the subtype representative strains (Table 6) were obtained from the NIAID AIDS Research and Reference Reagent Program. The low passage pediatric isolates SLKA, WeJo and TeKi were derived in the laboratories of Southern Research Institute.
# PBMC assays were carried out as described in Example 6.
# Reverse transcriptase (RT) activity was measured in cell-free supernatants as described in Example 6.
# [2] = tested on: HIV-1 clinical isolates, SIV and HIV-2; details: all viruses of Table 8
# Protocol: The inhibition of HIV-1 ADA and BaL replication in monocyte/macrophages was also assessed.
# as §3
# Subtype E CMU02 = assay: PBMC assay, HIV-1 subtype E; type: cell-based
# [3] = IC50 basis, HIV-1 RoJo, PBMCs, Example 6
compound,measurement,setting,value
Cc1cn([C@H]2C[C@H](N=[N+]=[N-])[C@@H](CO)O2)c(=O)[nH]c1=O [AZT],pIC50,"HIV-1 RoJo; RoJo, PBMC, Example 7, read-out: IC50",8.70
same,CC50,monocyte/macrophages,1000 nM
same,pIC50,Subtype A RW/92/016,9.00
same,pIC50,[1]; read-out: IC50,8.00
same,pIC50,Subtype C BR/92/025; read-out: IC50,8.30
same,pIC50,Subtype D UG/92/046,9.00
same,pIC50,Subtype F BR/93/020; read-out: IC50,8.52
same,pIC50,Subtype G Jv1083; read-out: IC50,8.22
same,pIC50,Subtype O BCOF-01,8.52
same,pIC50,WeJo,8.52
same,pIC50,SLKA,8.70
same,pIC50,TEKI,8.00
same,pIC50,HIV-1 ADA,8.15
same,pIC50,HIV-1 Ba-L,8.40
same,pIC50,SIVmac251; read-out: IC50,8.70
same,pIC50,HIV-2 (CDC 310319); read-out: IC50,9.40
"dextran sulfate, 17-20% sulfur, molecular weight 39,700 [DES 17-20% Sulfation]",IC50 (50% inhibition of virus replication),"HIV-1 RoJo; HIV-1 RoJo, PBMCs, Example 6",0.5 µg/mL and 1.0 µg/mL
same,anti-viral activity against HIV-1 RoJo virus,HIV-1 RoJo,significant anti-viral activity
"sulfated dextran, 9.5% sulfur, molecular weight 30,000 [DES 9.5% Sulfation]",fold less active than DES […] Sulfation,"HIV-1 RoJo; HIV-1 RoJo infected PBMCs, Example 7",37 fold
same,IC50 (50% inhibition of virus replication),"HIV-1 RoJo; HIV-1 RoJo, PBMCs, Example 6",19.4 µg/mL
same,fold less active than DES 17-20% Sulfation,HIV-1 RoJo; [3],39 fold
same,fold less active than DES […] Sulfation,HIV-1 RoJo; [3],12 fold
same,anti-viral activity against HIV-1 RoJo virus,HIV-1 RoJo,significant anti-viral activity
same,IC50,Subtype G Jv1083,> 100 µg/mL
same,IC50,MDR769,13 µg/mL
same,IC50,HIV-2 (CDC 310319),5.1 µg/mL
same,"IC50s, range over the virus panel",[2],5.1 to >100 μg/ml
"sulfated dextran, 12.2% sulfur, molecular weight 36,000 [DES 12.5% Sulfation]",IC50 (50% inhibition of virus replication),"HIV-1 RoJo; HIV-1 RoJo, PBMCs, Example 6",1.6 µg/mL
same,IC50,"HIV-1 RoJo; RoJo, PBMC, Example 7",.7 µg/mL
same,anti-viral activity against HIV-1 RoJo virus,HIV-1 RoJo,significant anti-viral activity
same,IC50,[1],.8 µg/mL
same,IC50,Subtype C BR/92/025,10.3 µg/mL
same,IC50,Subtype E CMU02,.7 µg/mL
same,IC50,Subtype F BR/93/020,.3 µg/mL
same,IC50,Subtype G Jv1083,11.7 µg/mL
same,IC50,MDR769,.7 µg/mL
same,IC50,SIVmac251,.6 µg/mL

# From patent publication US20070027109A1 (priority 2002, published 2007)
